Results: paper PMC3722118, “Hellebrin and its aglycone form hellebrigenin display similar in vitro growth inhibitory effects in cancer cells and binding profiles to the alpha subunits of the Na^+/K^+-ATPase” (Molecular Cancer, 2013)
Like-named read-outs stand apart in the source and are kept apart here.

Legend:
A549 NSCLC cells = experiment: MTT colorimetric in vitro growth inhibition assay; format: cell-based, human; conditions: read-out: IC50 (nM) A549
Excerpt: (§1) The histological types and origins of the eight human cancer cell lines that were used for the MTT colorimetric assay are detailed in the legend of Table 1. Two mouse cancer cell lines were also used, the CT26.WT colon cancer cell line (ATCC code CRL-2638) and the B16F10 melanoma cell line (ATCC code CRL-6475). Both cell lines were obtained from the American Type Culture Collection (ATCC, Manassas, VA). A control cell line (human NHDF fibroblasts) was obtained from PromoCell (code c-12300; Heidelberg, Germany). The cell lines detailed in Figure 2A are a generous gift from the National Cancer Institute (NCI, Bethesda, USA) to Steven Karlish’s lab.
(§2) The cancer cells were cultured in RPMI (Lonza, Verviers, Belgium) medium supplemented with 10% heat-inactivated fetal calf serum (Lonza). All culture media were supplemented with 4 mM glutamine, 100 μg/mL gentamicin, 200 U/mL penicillin and 200 μg/mL streptomycin (Lonza). The NHDF fibroblasts were cultured in Lonza medium cc3132 KT FGM-2 BulletKit.
(§3) The overall growth level of the human cancer cell lines was determined using a colorimetric MTT (3-(4,5-dimethylthiazol-2yl)-2,5-diphenyltetrazolium bromide, Sigma, Belgium) assay as detailed previously. Briefly, this test measures the number of metabolically active (thus living) cells that are able to transform the yellow MTT into the blue formazan dye via a mitochondrial reduction involving succinate dehydrogenase. The amount of formazan obtained at the end of the experiment (measured by spectrophotometry) is directly proportional to the number of living cells. The determination of the optical density in the control compared to the treated cells therefore enables quantitative measurements of the effects of compounds on the growth of normal as well as cancer cells in vitro.
(§4) Each experimental condition was performed in six replicates.

HT-29 colon cancer cells [1] = experiment: MTT colorimetric in vitro growth inhibition assay; format: cell-based, human; conditions: read-out: IC50 (nM) HT-29
Excerpt: as §1, §2, §3, §4

Hs683 glioma cells = experiment: MTT colorimetric in vitro growth inhibition assay; format: cell-based, human; conditions: read-out: IC50 (nM) Hs683
Excerpt: as §1, §2, §3, §4

[2] = test system: MCF-7 breast cancer cells; experiment: MTT colorimetric in vitro growth inhibition assay; format: cell-based, human; conditions: read-out: IC50 (nM) MCF-7
Excerpt: as §1, §2, §3, §4

[3] = test system: PC-3 prostate cancer cells; experiment: MTT colorimetric in vitro growth inhibition assay; format: cell-based, human; conditions: read-out: IC50 (nM) PC-3
Excerpt: as §1, §2, §3, §4

SKMEL-28 melanoma cells = experiment: MTT colorimetric in vitro growth inhibition assay; format: cell-based, human; conditions: read-out: IC50 (nM) SKMEL-28
Excerpt: as §1, §2, §3, §4

T98G glioma cells = experiment: MTT colorimetric in vitro growth inhibition assay; format: cell-based, human; conditions: read-out: IC50 (nM) T98G
Excerpt: as §1, §2, §3, §4

U373 glioma cells = experiment: MTT colorimetric in vitro growth inhibition assay; format: cell-based, human; conditions: read-out: IC50 (nM) U373
Excerpt: as §1, §2, §3, §4

[4] = test system: human cancer cells (A549, U373, Hs683, T98G, MCF-7, SKMEL-28, PC-3, HT-29); experiment: MTT growth inhibition, mean over the eight human cancer cell lines; format: cell-based; conditions: read-out: IC50 (nM) Mean ± SEM
Excerpt: as §1, §2, §3, §4

HT-29 colon cancer cells [5] = experiment: O2 consumption rate (MitoXpress assay); format: cell-based, human; conditions: compounds at their IC50 (MTT), 24 h
Method: For enzymatic determination of lactate production, confluent tumor cells were incubated with 10 mM glucose for 24 hours. Culture medium was then filtered through centrifugation columns with a 10 KDa cutoff, and L-lactate concentrations were determined on an ISCUSflex analyzer (CMA Microdialysis AB, Solna, Sweden). O2 consumption was determined using the MitoXpress assay according to the manufacturer’s instructions (LuxCell Biosciences, Cork, Ireland). Briefly, after adding the oxygen probe to tumor cells cultured for 24 hours in 96-well microplates with or without the tested compounds, the wells were sealed with mineral oil, and respiration was evaluated using time-resolved fluorescent plate readers. Under these conditions, O2 depletion was translated into an increase in probe phosphorescence signal, and the slope of this signal was used to derive the O2 consumption rate.
Figure 6 Metabolic profiling of human HT29 colon cancer cells treated with cardiotonic steroids. A: Extracellular lactate concentrations and B: O2 consumption rates in HT29 cancer cells treated with the indicated compounds at their IC50in vitro growth inhibitory concentrations (see Table 1). The data (mean ± SEM from triplicates) are expressed in mM lactate accumulated in the extracellular medium after 24 hours and arbitrary units derived from time-resolved fluorescent signal.min^-1.

NHDF fibroblasts = experiment: MTT growth inhibition in non-cancerous control cell line; format: cell-based; conditions: NHDF, normal human fibroblasts, read-out: in vitro growth inhibitory effects (IC50) in NHDF fibroblasts
Excerpt: as §1, §2, §3, §4

human α1β1 NaK complex = target: T1, human α1β1 NaK complex (Homo sapiens, UniProt P05023); experiment: 3H-ouabain competitive displacement on P. pastoris membranes; format: binding; conditions: 3H-ouabain displacement, three independent experiments; read-out: Affinity (nM) α-1 (KD ± SEM)
T1 construct: made in house; host or cells: Pichia pastoris strain SMD1165 (membranes)
Method: (§5) K0.5 was calculated using a one site inhibition model: B/BCG=0 = K0.5/([CG] + K0.5). […] Binding of each cardiac glycoside was estimated in 3 separate experiments.
(§6) Average KD or Ki values ± SEM for each isoform were calculated. Statistical significance was calculated by the unpaired Students t-test. P values <0.05 were considered significant.

human α2β1 NaK complex = target: T2, human α2β1 NaK complex (Homo sapiens, UniProt P50993); experiment: as above; format: binding
T2 construct: made in house; host or cells: Pichia pastoris strain SMD1165 (membranes)
Method: as §5, §6

human α3β1 NaK complex = target: T3, human α3β1 NaK complex (Homo sapiens, UniProt P13637); experiment: as above; format: binding
T3 construct: made in house; host or cells: Pichia pastoris strain SMD1165 (membranes)
Method: as §5, §6

[6] = target: T4, purified human α1β1 Na+/K+-ATPase (Homo sapiens, UniProt P05023); experiment: Inhibition of NaK activity of purified detergent-soluble complex (Pi release); format: biochemical; conditions: 37°C, 1 h, 1 mM ATP; read-out: Ki for inhibition of NaK activity of purified human α1β1
T4 construct: made in house; host or cells: Pichia pastoris strain SMD1165; detergent-soluble complex purified
Method: The inhibition of NaK activity of the purified detergent-soluble α1β1, α2β1, and α3β1 complexes by cardiotonic steroids and an analysis of the inhibition data (Ki values) were also performed as previously described. The inhibitors were added to the recombinant enzyme (0.08–0.2 μg of protein) in 400 μl of reaction medium containing 130 mM NaCl, 5 mM KCl, 3 mM MgCl2, 25 mM histidine, pH 7.4, 1 mM EGTA, 0.01 mg/ml SOPS, 0.001 mg/ml cholesterol, and 0.005 mg/ml C12 E8 in 48-well plates. The reaction (37°C for 1 h) was started by the addition of 1mM ATP. Pi release was measured with a malachite green dye to detect the phosphor-molybdate (Pi Color Lock, Innova Biosciences). The percent inhibition V /V0 was calculated for each cardiac glycoside concentration, and Ki values were obtained by fitting the data to the function V /V0 = Ki /([CG] + Ki ) (using Kaleidagraph). V0 and V represent the control rate and rate of NaK-ATPase activity at particular concentrations of cardiac glycosides, [CG], respectively.
as §6

[7] = Homo sapiens, A549, 72 h, three days of culture, * three independent experiments, ** one experiment, six replicates
[8] = Homo sapiens, HT-29, 72 h, three days of culture, * three independent experiments, ** one experiment, six replicates
[9] = Homo sapiens, Hs 683, 72 h, three days of culture, * three independent experiments, ** one experiment, six replicates
[10] = Homo sapiens, MCF7, 72 h, three days of culture, * three independent experiments, ** one experiment, six replicates
[11] = Homo sapiens, 72 h, three days of culture, * three independent experiments, ** one experiment, six replicates
[12] = Homo sapiens, SK-MEL-28, 72 h, three days of culture, * three independent experiments, ** one experiment, six replicates
[13] = Homo sapiens, T98G, 72 h, three days of culture, * three independent experiments, ** one experiment, six replicates
[14] = Homo sapiens, U373 MG, 72 h, three days of culture, * three independent experiments, ** one experiment, six replicates
[15] = 72 h, mean over eight human cancer cell lines, three days of culture
[16] = three days of culture, * three independent experiments, ** one experiment, six replicates

SMILES | IC50 (A549 NSCLC cells; Homo sapiens, A549, 72 h) [nM] | IC50 (HT-29 colon cancer cells [1]; Homo sapiens, HT-29, 72 h) [nM] | IC50 (Hs683 glioma cells; Homo sapiens, Hs 683, 72 h) [nM] | IC50 ([2]; Homo sapiens, MCF7, 72 h) [nM] | IC50 ([3]; Homo sapiens, 72 h) [nM] | IC50 (SKMEL-28 melanoma cells; Homo sapiens, SK-MEL-28, 72 h) [nM] | IC50 (T98G glioma cells; Homo sapiens, T98G, 72 h) [nM] | IC50 (U373 glioma cells; Homo sapiens, U373 MG, 72 h) [nM] | IC50 ([4]; Homo sapiens, 72 h) [nM] | IC50 (A549 NSCLC cells; [7]) [nM] | IC50 (HT-29 colon cancer cells [1]; [8]) [nM] | IC50 (Hs683 glioma cells; [9]) [nM] | IC50 [2, 10] [nM] | IC50 [3, 11] [nM] | IC50 (SKMEL-28 melanoma cells; [12]) [nM] | IC50 (T98G glioma cells; [13]) [nM] | IC50 (U373 glioma cells; [14]) [nM] | IC50 [4, 15] [nM] | further results
C[C@]12CC[C@H](O)C[C@H]1CC[C@@H]1[C@@H]2CC[C@]2(C)[C@@H](C3=CC(=O)OC3)CC[C@]12O [Digitoxigenin] | 92 | 230 | 79 | 2130 | 298 | 2500 | 166 | 369 | 733 ± 349 |  |  |  |  |  |  |  |  |  | 
C[C@H]1O[C@@H](O[C@H]2[C@@H](O)C[C@H](O[C@H]3[C@@H](O)C[C@H](O[C@H]4CC[C@@]5(C)[C@H](CC[C@@H]6[C@@H]5CC[C@]5(C)[C@@H](C7=CC(=O)OC7)CC[C@]65O)C4)O[C@@H]3C)O[C@@H]2C)C[C@H](O)[C@@H]1O [Digitoxin, digitoxin] |  |  |  |  |  |  |  |  |  | 11 | 198 | 15 | 187 | 37 | 59 | 32 | 61 | 75 ± 26 | 
C[C@]12CC[C@H](O)C[C@H]1CC[C@@H]1[C@@H]2C[C@@H](O)[C@]2(C)[C@@H](C3=CC(=O)OC3)CC[C@]12O [Digoxigenin, digoxigenin] |  |  |  |  |  |  |  |  |  | 395 ± 34 | 4460 | 794 ± 22 | 5320 | 3880 | 4000 | 1170 | 3190 | 2900 | 
C[C@H]1O[C@@H](O[C@H]2[C@@H](O)C[C@H](O[C@H]3[C@@H](O)C[C@H](O[C@H]4CC[C@@]5(C)[C@H](CC[C@@H]6[C@@H]5C[C@@H](O)[C@]5(C)[C@@H](C7=CC(=O)OC7)CC[C@]65O)C4)O[C@@H]3C)O[C@@H]2C)C[C@H](O)[C@@H]1O [Digoxin, digoxin] |  |  |  |  |  |  |  |  |  | 60 ± 7 | 208 ± 20 | 51 ± 6 | 363 ± 35 | 215 ± 71 | 220 ± 26 | 274 ± 17 | 227 ± 42 | 202 ± 37 | O2 consumption rate (cell respiration) (HT-29 colon cancer cells [5]): significantly reduced
C[C@]12CC[C@H](O)C[C@H]1CC[C@@H]1[C@@H]2[C@H](O)C[C@]2(C)[C@@H](c3ccc(=O)oc3)CC[C@]12O [Gamabufotalin, gamabufotalin] | 7 ± 1 | 37 ± 3 | 14 ± 3 | 40 ± 7 | 22 ± 4 | 22 ± 1 | 31 ± 8 | 34 ± 1 | 26 ± 4 |  |  |  |  |  |  |  |  |  | IC50 (NHDF fibroblasts): > 10 µM; Kd (human α1β1 NaK complex): 243 ± 48 nM; Kd (human α2β1 NaK complex; 3H-ouabain displacement, three independent experiments, read-out: Affinity (nM) α-2 (KD ± SEM)): 247 ± 30 nM; Selectivity α-1 / α-2 (human α2β1 NaK complex; ratio of KD α-1 to KD α-2): 1.0; Kd (human α3β1 NaK complex; 3H-ouabain displacement, three independent experiments, read-out: Affinity (nM) α-3 (KD ± SEM)): 236 ± 14 nM; Selectivity α-1 / α-3 (human α3β1 NaK complex; ratio of KD α-1 to KD α-3): 1.0
C[C@]12C[C@@H](O)[C@H]3[C@@H](CC[C@]4(O)C[C@@H](O)C[C@@H](O)[C@]34CO)[C@@]1(O)CC[C@@H]2C1=CC(=O)OC1 [Ouabagenin, ouabagenin] |  |  |  |  |  |  |  |  |  |  |  |  |  |  |  |  |  |  | IC50 (A549 NSCLC cells; [16]): 866 ± 25 nM; IC50 (HT-29 colon cancer cells [1]; [16]): 3480 nM; IC50 (Hs683 glioma cells; [16]): 1900 nM; IC50 [2, 16]: 4010 nM; IC50 [3, 16]: 2710 nM; IC50 (SKMEL-28 melanoma cells; [16]): 2560 nM; IC50 (T98G glioma cells; [16]): 3600 nM; IC50 (U373 glioma cells; [16]): 5280 nM; IC50 ([4]; mean over eight human cancer cell lines, three days of culture): 3050 nM; Ki [6]: 721 ± 70 nM
